Experiments:
Type in all cases: physicochemical
[1] = Molar extinction coefficient of i-line (365 nm), UV-visible absorbance in acetonitrile; conditions: 0.25 mmol/L in acetonitrile, cell length 1 cm
Procedure: The synthesized photoacid generator was diluted to 0.25 mmol/L with acetonitrile, and using an ultraviolet-visible spectrophotometer (UV-2550 available from SHIMADZU CORPORATION), the absorbance in a range of 200 nm to 500 nm was measured with a cell having an optical path length (a cell length) of 1 cm. The molar extinction coefficient of i-line (365 nm) (ε365) was calculated from the following equation.
[In the equation, […] represents the absorbance at 365 nm.]

[2] = Solvent solubility (butyl acetate, toluene or PGMEA); conditions: 25° C.
Procedure: In a test tube, 0.1 g of the synthesized photoacid generator was placed, and an organic solvent (butyl acetate, toluene or PGMEA) was added thereto in 0.2 g portions under a condition where the temperature was adjusted to 25° C. until the photoacid generator was completely dissolved. In this connection, in the case where the photoacid generator was not completely dissolved even when 20 g of the solvent was added, the photoacid generator was evaluated as one that was not dissolved.

[3] = Thermal decomposition temperature (TG/DTA, 2% weight reduction); conditions: point of 2% weight reduction; 10° C./minute from 30° C. to 500° C.; nitrogen atmosphere
Procedure: The synthesized photoacid generator was measured for the change in weight under a temperature increasing condition of 10° C./minute from 30° C. to 500° C. under a nitrogen atmosphere using a thermal gravimetric/differential thermal analyzer (TG/DTA 6200, available from Seiko Instruments Inc.), and a point where the weight was reduced by 2% was defined as the thermal decomposition temperature.

| SMILES | Molar extinction coefficient [1] | Solvent solubility PGMEA [2] | Solvent solubility Butyl acetate [2] | Solvent solubility Toluene [2] | Thermal decomposition temperature [3] |
| --- | --- | --- | --- | --- | --- |
| CC(C)(C)c1cc2c3c(cc(C(C)(C)C)cc3c1)C(=O)N(OS(=O)(=O)c1c(F)c(F)c(F)c(F)c1F)C2=O [Example A-33, 3,6-di-tert-butyl-1,8-naphthalimide pentafluorobenzenesulfonate] | 6500 L/mol/cm | 6 wt % | 6.5 wt % | 6 wt % | 245 °C |
| CC(C)(C)Cc1cc2c3c(cc(CC(C)(C)C)cc3c1)C(=O)N(OS(=O)(=O)c1c(F)c(F)c(F)c(F)c1F)C2=O [Example A-34, 3,6-dineopentyl-1,8-naphthalimide pentafluorobenzenesulfonate] | 6200 L/mol/cm | 11 wt % | 14 wt % | 8 wt % | 250 °C |
| O=C1c2cc(C34CC5CC(CC(C5)C3)C4)cc3cc(C45CC6CC(CC(C6)C4)C5)cc(c23)C(=O)N1OS(=O)(=O)c1c(F)c(F)c(F)c(F)c1F [Example A-35, 3,6-diadamantyl-1,8-naphthalimide pentafluorobenzenesulfonate] | 6000 L/mol/cm | 5.5 wt % | 6 wt % | 9 wt % | 251 °C |
| O=C1c2cccc3c(C(F)(F)C(F)(F)C(F)(F)C(F)(F)F)ccc(c23)C(=O)N1OS(=O)(=O)c1c(F)c(F)c(F)c(F)c1F [Example A-36, 4-(nonafluorobutyl)-1,8-naphthalimide pentafluorobenzenesulfonate] | 40 L/mol/cm | 13 wt % | 14 wt % | 11 wt % | 239 °C |
| O=C1c2cccc3c(C(F)(F)C(F)(F)C(F)(F)C(F)(F)C(F)(F)C(F)(F)C(F)(F)C(F)(F)F)ccc(c23)C(=O)N1OS(=O)(=O)c1c(F)c(F)c(F)c(F)c1F [Example A-37, 4-(heptadecafluoro-n-octyl)-1,8-naphthalimide pentafluorobenzenesulfonate] | 80 L/mol/cm | 23 wt % | 25 wt % | 28 wt % | 244 °C |
| C[Si](C)(C)c1ccc2c3c(cccc13)C(=O)N(OS(=O)(=O)c1c(F)c(F)c(F)c(F)c1F)C2=O [Example A-38, 4-trimethylsilyl-1,8-naphthalimide pentafluorobenzenesulfonate] | 5500 L/mol/cm | 5.5 wt % | 5.5 wt % | 6 wt % | 241 °C |
| O=C1c2cccc3c(Cl)ccc(c23)C(=O)N1OS(=O)(=O)c1c(F)c(F)c(F)c(F)c1F [Example A-39, 4-chloro-1,8-naphthalimide pentafluorobenzenesulfonate] | 6000 L/mol/cm | 3.5 wt % | 3 wt % | 5 wt % | 225 °C |
| O=C1c2cccc3c(Br)ccc(c23)C(=O)N1OS(=O)(=O)c1c(F)c(F)c(F)c(F)c1F [Example A-40, 4-bromo-1,8-naphthalimide pentafluorobenzenesulfonate] | 8500 L/mol/cm | 3.2 wt % | 3 wt % | 4.5 wt % | 243 °C |
| CC(C)Oc1ccc2c3c(cccc13)C(=O)N(OS(=O)(=O)CC13CCC(CC1=O)C3(C)C)C2=O (stereo not drawn) [Example A-41, 4-isopropoxy-1,8-naphthalimide-(+)-10-camphorsulfonate] | 16300 L/mol/cm | 1.8 wt % | 1.7 wt % | 2 wt % | 239 °C |
| CCCOc1ccc2c3c(cccc13)C(=O)N(OS(=O)(=O)CC13CCC(CC1=O)C3(C)C)C2=O (stereo not drawn) [Example A-42, 4-n-propoxy-1,8-naphthalimide-(+)-10-camphorsulfonate] | 14000 L/mol/cm | 1.2 wt % | 1.5 wt % | 2 wt % | 245 °C |
| CC1(C)C2CCC1(CS(=O)(=O)ON1C(=O)c3cccc4c(OCC(F)(F)C(F)F)ccc(c34)C1=O)C(=O)C2 (stereo not drawn) [Example A-43, 4-(2,2,3,3-tetrafluoro-1-propoxy)-1,8-naphthalimide-(+)-10-camphorsulfonate] | 12000 L/mol/cm | 3 wt % | 3 wt % | 3.5 wt % | 231 °C |
| CC1(C)C2CCC1(CS(=O)(=O)ON1C(=O)c3cccc4c(C(=O)Cc5ccccc5)ccc(c34)C1=O)C(=O)C2 (stereo not drawn) [Example A-44, 4-phenylacetyl-1,8-naphthalimide-(+)-10-camphorsulfonate] | 3000 L/mol/cm | 1.8 wt % | 1.4 wt % | 1.8 wt % | 233 °C |
| CC1(C)C2CCC1(CS(=O)(=O)ON1C(=O)c3cccc4c(Oc5c(F)c(F)c(F)c(F)c5F)ccc(c34)C1=O)C(=O)C2 (stereo not drawn) [Example A-45, 4-pentafluorophenoxy-1,8-naphthalimide-(+)-10-camphorsulfonate] | 12000 L/mol/cm | 3.5 wt % | 4 wt % | 4 wt % | 245 °C |
| CC1(C)C2CCC1(CS(=O)(=O)ON1C(=O)c3cccc4c(Oc5cccc(C(F)(F)F)c5)ccc(c34)C1=O)C(=O)C2 (stereo not drawn) [Example A-46, 4-(3-trifluoromethylphenoxy)-1,8-naphthalimide-(+)-10-camphorsulfonate] | 16000 L/mol/cm | 2.8 wt % | 3.5 wt % | 3.3 wt % | 243 °C |
| CC1(C)C2CC[C@@]1(CS(=O)(=O)ON1C(=O)c3cccc4c(Sc5ccccc5)ccc(c34)C1=O)C(=O)C2 [Example A-47, 4-phenylthio-1,8-naphthalimide-(+)-10-camphorsulfonate] | 20000 L/mol/cm | 1.3 wt % | 1.8 wt % | 1.7 wt % | 244 °C |
| COc1cc2c3c(cccc3c1)C(=O)N(OS(=O)(=O)C[C@]13CCC(CC1=O)C3(C)C)C2=O [Example A-48, 3-methoxy-1,8-naphthalimide-(+)-10-camphorsulfonate] | 7500 L/mol/cm | 1.5 wt % | 2 wt % | 1.9 wt % | 242 °C |
| CCCCC(CC)C(=O)Oc1cc2c3c(cccc3c1)C(=O)N(OS(=O)(=O)CC13CCC(CC1=O)C3(C)C)C2=O (stereo not drawn) [Example A-49, 3-(2-ethylhexanoyloxy)-1,8-naphthalimide-(+)-10-camphorsulfonate] | 1500 L/mol/cm | 8 wt % | 11 wt % | 9 wt % | 232 °C |
| CCCC(=O)Oc1cc2c3c(cccc3c1)C(=O)N(OS(=O)(=O)CC13CCC(CC1=O)C3(C)C)C2=O (stereo not drawn) [Example A-50, 3-butyroyloxy-1,8-naphthalimide-(+)-10-camphorsulfonate] | 1600 L/mol/cm | 7.2 wt % | 9 wt % | 7 wt % | 237 °C |
